Each structure is given as a SMILES string.

For this experiment, the system named is transgenic R6/2 mice (a disease model for Huntington's Disease). As to the kind of experiment: Lifespan of R6/2 mice after treatment with MT. The settings on record: MT 5 g/kg i.p. 5 times per week from 4 weeks of age, vehicle 101, wild-type 181. The experiment is classed as in vivo, Mus musculus. Here is the method: The objective of this study was to assess the effects of molecular trehalose (MT) in the R6/2 mouse model of Huntington's disease through intraperitoneal (IP) injections. Treated mice […] were administered (i.e. dosed) with a MT intraperitoneal (i.p.) injection. Mice were weighed twice per week until 8 weeks post infusion i.e., 12 weeks of age or followed until survival. At a minimum of 8 weeks post infusion or MT dosing, mice were sacrificed 30 minutes after last MT, and the following tissues were collected: blood, brain, and tail. Immunohistochemistry analysis for GFAP, Iba1, EM-47 and Darpp-32 were performed on brain hemisphere 1 samples and the amount of MT in blood and brain hemisphere 2 samples was determined.
Male R6/2 (B6CBA-Tg(HDexon1)62Gpb/3J) (The Jackson Laboratory, USA, JAX stock: 006494) mice (Mus musculus) between the ages of 28-33 days were used in this study. […]
Eleven male mice were treated with trehalose 5 g/kg (i.p. injection, 25 ml/kg, trehalose dose formulation concentration: 0.2 g/ml, with active trehalose corresponding to 5.252 g/kg of trehalose dihydrate), 5 times per week starting at 4 weeks of age. […] Mice were euthanized at 8 weeks after first trehalose dose (12 weeks of age, n=8). n=3 mice/group were monitored until survival. […]

For the compound `OC[C@H]1O[C@H](O[C@H]2O[C@H](CO)[C@@H](O)[C@H](O)[C@H]2O)[C@H](O)[C@@H](O)[C@@H]1O` [MT, trehalose], the median lifespan is listed as 119 days.

The values above are taken from patent US20260191889A1, “TREHALOSE FOR TREATING HUNTINGTON'S DISEASE” (GLD Debt Acquisition 2025-1, priority 2022, published 2026).
